Assay [1] has as its target T1, B. anthracis DHOase (Bacillus anthracis, UniProt Q81WF0). Type of assay: binding. To be noted: for KD (equilibrium dissociation constant determined by SPR): 25 °C. Background: SPR reads the build-up and loss of mass on a sensor chip optically.
The target of assay [2] is T1, B. anthracis DHOase. To be noted: cited from earlier work.
The target in assay [3] is WT-DHOase (B. anthracis DHOase) (Bacillus anthracis, UniProt Q81WF0). The class given is biochemical.
For the next assay, the system named is E. coli DHOase. Conditions: cited from earlier work.
Assay [4] concerns the target T1, B. anthracis DHOase. The class given is binding.

The values that follow come from article PMC5045712 (Bioorganic & medicinal chemistry, 2016).

SMILES strings stand for the structures.

WT-DHOase (B. anthracis DHOase), sequence (Q81WF0 whole entry, looked up): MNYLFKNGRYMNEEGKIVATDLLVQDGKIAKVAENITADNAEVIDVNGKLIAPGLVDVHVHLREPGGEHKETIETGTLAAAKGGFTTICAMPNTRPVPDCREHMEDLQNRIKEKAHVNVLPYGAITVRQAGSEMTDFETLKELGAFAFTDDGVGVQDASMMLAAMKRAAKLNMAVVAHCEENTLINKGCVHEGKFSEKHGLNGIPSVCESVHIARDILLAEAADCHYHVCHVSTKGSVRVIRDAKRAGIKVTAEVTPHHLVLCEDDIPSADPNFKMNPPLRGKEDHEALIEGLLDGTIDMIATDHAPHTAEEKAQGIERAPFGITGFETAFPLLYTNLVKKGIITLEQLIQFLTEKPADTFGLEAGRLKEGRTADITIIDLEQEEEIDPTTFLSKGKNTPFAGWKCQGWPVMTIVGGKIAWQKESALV
T1 sequence (Q81WF0 whole entry, looked up): as above

With `COc1ccc2[nH]c(CN)cc2c1` [Compound 6c], the “KD (equilibrium dissociation constant determined by SPR)” value on B. anthracis DHOase [1] is reported as “no interaction”.
Consider `Nc1c(C(=O)O)[nH]c(=O)[nH]c1=O` [5-aminoorotate (AOA), 5-aminoorotate], for which, at B. anthracis DHOase [2], the “inhibition of B. anthracis DHOase” value is listed as “no inhibition”.
The term Km denotes the concentration of substrate that gives half-maximal velocity. Broadly, the kcat is the maximal rate divided by the concentration of active sites. Consider `O=C1CC(C(=O)O)NC(=O)N1` (stereo not shown) [DHO, dihydroorotate], for which the figures for the Km (in assay [3]; with E. coli DHOase) were 114 ± 16 µM and 80 µM, respectively. The kcat in assay [3] was 1.9 ± 0.1 s⁻¹; in the assay on E. coli DHOase it was 100 ± 1.6 s⁻¹.
Regarding `CSC1(NC#N)NCCc2c1[nH]c1ccc(F)cc21` (stereo not shown) [Compound 7], the “KD with 1 mM Ca-asp” value on B. anthracis DHOase [1] is on record as “unable to be determined”.
Regarding `COc1ccc2[nH]c3c(c2c1)CCNC3` [Compound 6a], on B. anthracis DHOase [1], the “KD with 1 mM Ca-asp” value was “not affected” and the “fold change of KD relative to compound 6” value is ~ 1.5 fold.
As for `COc1ccc2[nH]c3c(c2c1)CN(C(C)=O)CC3` [Compound 8], the “KD (equilibrium dissociation constant determined by SPR)” value at B. anthracis DHOase [1] was “weaker”.
Regarding `COc1ccc2[nH]c3c(c2c1)CCNC3(NC#N)SC` (stereo not shown) [Compound 7a], at B. anthracis DHOase [1], the “fold change of KD relative to compound 6” value stood at 18 fold.
With `CCC(=O)Nc1ccc(OC)cc1OC` [Compound 4], the “KD with 1 mM Ca-asp” value on B. anthracis DHOase [1] was “remained the same”. Further, the “shift in melting temperature (Tm)” value at B. anthracis DHOase [4] is recorded as “shows a shift in melting temperature”.
In the case of `Cc1ccc2[nH]c3c(c2c1)CCNC3` [Compound 6b], on B. anthracis DHOase [1], the “KD (equilibrium dissociation constant determined by SPR)” value is “completely abolished”.
With `O=C(O)c1[nH]c(=O)[nH]c(=O)c1F` [5-fluoroorotate (FOA), 5-fluoroorotate], the “inhibition of B. anthracis DHOase” value at B. anthracis DHOase [2] is listed as “no inhibition”.
As for `NC(=O)N[C@@H](CC(=O)O)C(=O)O` [Ca-asp, carbamyl-asparate], in assay [3], the Km was 112 ± 24 µM and the kcat is 2.1 ± 0.1 s⁻¹. Also, in the assay on E. coli DHOase, the Km was 1700 µM and the kcat was 160 ± 8 s⁻¹.
